Where a SMILES comes first, the peptide text is derived from it.
Legend:
[1] = tested on: ChAT-positive neurons in the striatum; test: ChAT immunohistochemistry in striatum of aging rats; type: in vivo, rat; conditions: single s.c. dose 0.012-12 mg/kg; 18-month old rats; 3 days after treatment
Protocol: Eighteen-month old male rats received one of five treatments. A control group was treated with vehicle (saline alone (n=4) and four groups were treated with a single dose of G-2-MePE. […] Rats were sacrificed with an overdose of pentobarbital 3 days after drug treatment. Brains were perfused with normal saline and 4% paraformaldehyde and fixed in perfusion fixative overnight. Brains were stored in 25% sucrose in 0.1M PBS (pH7.4) until the tissue sank. Frozen coronal sections of striatum were cut with a microtome and stored in 0.1% sodium azide in 0.1M PBS at 4° C. Immunoreactivity for choline acetyltransferase (ChAT) was established by staining using a free floating section method. Briefly, antibodies were diluted in 1% goat serum. The sections were incubated in 0.2% triton in 0.1M PBS/Triton™ at 4° C. overnight before Immunohistochemical staining. The sections were pre-treated with 1% H2O2 in 50% methanol for 20 min. The sections were then incubated with rabbit (Rb) anti-ChAT (1:5000) antibodies (the primary antibodies) in 4D on a shaker for two days. The sections were washed using PBS/Triton™ (15 minutes×3d) and then incubated with goat anti-rabbit biotinylated secondary antibodies (1:1000) at room temperature overnight. […] The size of the striatal region used for the count was measured using an image analyser. […] Data were analysed using a paired t-test and presented as mean+/−SEM.

fmr1 knockout mice [2] = test: Social behavior, bouts of sniffing, fmr1 knockout mice; type: in vivo, mouse; conditions: 100 mg/kg i.p. 28-day
Protocol: G-2-MePE was administered at the dose of 100 mg/kg i.p. in 0.1 ml saline, once daily for 28 days. Vehicle-treated animals were injected with 0.1 ml saline daily for 28 days. Thereafter, drug or vehicle treatments were stopped and animals were tested on successive days until all tests were completed. Finally, the animals were sacrificed for determining expression of pAkt and pERK Mice are a social species, which engage in easily scored social behaviors including approaching, following, sniffing, allogrooming, aggressive encounters, sexual interactions, parental behaviors, nesting and sleeping in a group huddle. In the present studies, social recognition and social memory in mice were evaluated by assessing the amount of time spent sniffing a novel mouse upon repeated exposures, to induce familiarity, and reinstatement of high levels of sniffing when a novel stimulus animal is introduced.

[3] = tested on: layer 5 pyramidal neurons of motor cortex, MeCP2 knockout; test: Golgi staining, cortical spine density (Example 10); type: in vivo, mouse; conditions: P28 mice; knockout with treatment
Protocol: Samples (<1 cm) from P28 mice are fixed in 10% formalin and 3% potassium bichromate for 24 hours. Tissue is then transferred into 2% silver nitrate for 2 days in the dark at room temperature. Sections from these samples are then cut at 50 μm thickness into distilled water. Sections corresponding to motor cortex are mounted onto slides, air dried for 10 minutes, and then dehydrated through sequential rinses of 95% alcohol, 100% alcohol, and xylene, and then sealed with a coverslip. Images re acquired at 10× (whole cell) and 100× (spine imaging) using a Zeiss Pascal 5 Exciter confocal microscope. We use Golgi staining to label neurons sparsely and distinctly, and applied high-resolution confocal imaging to measure dendritic spine density and morphology in the labelled cells, restricting analysis to layer 5 pyramidal neurons in sections of motor cortex from critical period mice (P28). While low-magnification imaging clearly delineates the extent of the dendrites of the pyramidal cells we use higher magnifications to count synaptic contacts and determine the morphological class of each spine. We classify spines as either large and bulbous (“mushroom”, M), short and stubby (“stubby”, S), short and thin (“thin”, T) or filopodia (F).

fmr1 knockout mice [4] = test: Elevated plus maze, fmr1 knockout mice; type: in vivo, mouse
Protocol: G-2-MePE was administered at the dose of 100 mg/kg i.p. in 0.1 ml saline, once daily for 28 days. Vehicle-treated animals were injected with 0.1 ml saline daily for 28 days. Thereafter, drug or vehicle treatments were stopped and animals were tested on successive days until all tests were completed. Finally, the animals were sacrificed for determining expression of pAkt and pERK The Elevated Plus Maze (EPM) is a further test system for examining anxiety and locomotor activity. The EPM was built according to the description of Lister (Lister 1987). Briefly, the maze consisted of two open and two closed arms opposite each other in a plus shape, raised above floor height. The open arms were more exposed and therefore more anxiogenic. Wild-type mice therefore spent more time in the closed arms and visited them more. Mice were tested for 5 min and their behaviour was recorded. Measures taken included time spent in the arms and the center of the maze, and number of arm entries.

MeCP2-/y mice = test: Heart rate measurements (Example 10); type: in vivo, mouse; conditions: 8 weeks old, treated from P15
Protocol: Real time cardiac pulse rate is measured using a tail clip sensor (Mouse OX Oximeter—Oakmont, Pa.). Mice are not anesthetized but physically restrained in a fitted open plastic tube. Prior to the recording session the tube is placed overnight in the cages housing the experimental animals to allow habituation. Body temperature is maintained at ˜82-84° F. throughout the recording time. We record 3 trials of 15 minutes for each mouse, mice are 8 weeks old and treated with vehicle or G-2-MePE from P15.

C[C@@]1(C(=O)N[C@@H](CCC(=O)O)C(=O)O)CCCN1C(=O)CN [Example G-2-MePE, Glycyl-L-2-methylprolyl-L-glutamic acid] (HELM PEPTIDE1{G.[C[C@@]1(C(=O)[*:2])CCCN1[*:1]].E}$$$$V2.0)
number of ChAT-immunopositive neurons [1]: increased | heightened sniffing of the presented mouse (fmr1 knockout mice [2]; fmr1 KO): nullified | sniffing (fmr1 knockout mice [2]; wild-type group): no significant effect | density of spines per unit branch [3]: largely ameliorated | percent open arm entries (fmr1 knockout mice [4]; 100 mg/kg i.p. 28 days): completely normalised | time spent in the centre (fmr1 knockout mice [4]; 28-days treatment): normalised | occurrence of irregular, lower heart rate (MeCP2-/y mice): significantly reduced
